Tests used:
[1] = test system: murine primary bone marrow cells; assay: Multipotential colonies (CFU-GEMM) from murine bone marrow cells, colony and differential counts; format: cell-based, mouse; settings: for megakaryocyte formation and development: 8 days treatment
Experimental: Stimulation of Hematopoiesis from Bone Marrow (BM) Cells in Culture:
Proliferation of megakaryocytes in multipotential colonies (CFU-GEMM) from murine Bone Marrow cells: Primary bone marrow cells (1×10^5 per ml) from 8-12 week-old C3H/HeJ mice were grown in serum-free methyl cellulose-IMDM medium for 8-9 days at 5% CO2, 95% air, at 37° C. The medium, appropriate for the growth of multipotential colonies (CFU-GEMM), contained 1% BSA (Sigma), 10^−4 M thioglycerol (Sigma), 2.8×10^−4 M human transferrin (TF, Biological industries, Israel), 10% WEHI-CM as a source of IL-3 and 2 units per ml erythropoietin (rhEPO, R & D Systems, Minneapolis). Colonies were scored after 8-9 days using an Olympus dark field microscope. They were picked with a micropipette, cytocentrifuged and stained with May-Grunwald-Giemsa for differential counts. At least 700 cells were counted for each preparation. […]
Proliferation of Macrophage cells in CFU-GEMM: Multipotent (CFU-GEMM colonies grown from primary bone marrow cells as described for the assay of megakaryocyte proliferation above were collected, stained and counted for macrophage cells. At least 700 cells were counted for each preparation.
Proliferation of Red Blood Cells in CFU-GEMM: Multipotent (CFU-GEMM) colonies grown from primary bone marrow cells as described for the assay of megakaryocyte proliferation above were collected, stained and counted for red blood cells. At least 700 cells were counted for each preparation. […]

HIV-1IIIB [2] = assay: Inhibition of HIV-1 infection of CEM lymphocytes (cell counts, P24 antigen assay); format: cell-based; settings: for cell counts: infected control 1.06×10^6; for HIV-1 infection level, P24 antigen: 7 days post infection, control 0.52
Experimental: (§1) Inhibition of in vitro HIV infection of human lymphocyte cells:
(§2) Peptides: Peptides (either peptides derived from natural casein or synthetic peptides derived from casein (1-25 amino acids in length, see table 3) supplied as lyophilized powder were resuspended in RPMI complete medium and added to cell cultures at a final concentrations of 50 to 1000 μg per ml.
(§3) Cells: Several types of freshly isolated human cells (primary cells) and cell lines are known to be susceptible to in vitro HIV-1 infection, although essentially any cell displaying even low surface levels of the CD4 molecule can be considered a potential target for HIV-1 infection. Two commonly used human cell lines which are highly sensitive for HIV-1 infection were chosen, CEM and Sup-T1.
CEM is a human T4-lymphoblastoid cell line initially derived by G. E. Foley et al. [(1965), Cancer 18:522] from peripheral blood buffy coat of a person with acute lymphoblastic leukemia. These cells were continuously maintained in suspension in medium, and have been used widely for analysis of infectivity, antiviral agents and neutralizing antibodies.
Virus: The HIV virus strain employed was HIV-1IIIB, originally designated HTLV-IIIB. Concentrated culture fluids of peripheral blood from several patients with AIDS or related diseases were used to establish a permanent productive infection in H-9 cells. This subtype B virus has high capacity to replicate in human T-cell lines. Viral titer was 5.38 ng per ml in stock solution.
HIV-1 P24 antigen capture assay: An HIV-1 P24 Antigen capture assay kit employed was designed to quantitate the HIV-1 P24 core antigen, which is proportionally related to the degree of viral production in cells. This kit was purchased from the AIDS Vaccine program of the SAIC-NCI-Frederick Cancer Research Institute, P.O. Box B, Frederick, Md. 21702, USA and included 96 well plates coated with monoclonal antibody to HIV-1 P24, primary antibody-rabbit anti-HIV P24 serum, secondary antibody-Goat anti-rabbit-IgG (H+ L) peroxidase conjugated antibody, TMB peroxidase substrate system and lysed HIV-1 P24 standard. The HIV-1 P24 antigen capture assay was analyzed by Organon-Technica ELISA reader at 450 nm with a reference at 650 nm.
HIV-1 P24 antigen capture ELISA: HIV infection was measured with an indirect enzyme immunoassay which detects HIV-1 P24 core antigens in tissue culture media. Tissue culture supernatant was reacted with primary rabbit anti-HIV-1 P24 antigen and visualized by peroxidase conjugated goat anti rabbit IgG. The reaction was terminated by adding 4N H2SO4, wherein the intensity of the color developed is proportional to the amount of HIV-1 antigen present in the tissue culture supernatant.
HIV infection of human cultured CD4+ cells: The cells (CEM, Sup-T1) were preincubated with several increasing concentrations of peptides derived from natural casein (50-1000 μg per ml) or synthetic peptides derived from casein (10-500 μg per ml) for 3, 24 (for synthetic and natural peptides) and 48 (only for natural peptides) hours and HIV-1IIIB (45 μg per ml final concentration) was added to each well thereafter. HIV-1IIIB was preincubated with the peptides for 3 hours and then added to cells (5000 cells/well) in tissue culture plates. Controls were IF (Infected, cells cultured with HIV-1 and without peptides), UIF (Uninfected, cells cultured without HIV-1 and without peptides) and UIF+Ch (Uninfected+peptides derived from natural casein, cells cultured in the presence of peptides derived from natural casein {50-1000 μg per ml}) to test the effect of peptides derived from natural casein and synthetic peptides derived from casein on cell viability and growth. Cells were counted for viability and proliferation rate on day 7, 10 and day 14 post infection (the day of P24 antigen culture supernatant harvest). Cells and tissue culture supernatants (media) were harvested and lysed immediately in 1/10 volume of 10% Triton X-100. […]

[3] = test system: female C57B1/6j mice fed an atherogenic diet; assay: Diet-induced hypercholesterol/hyperlipidemia in C57B1/6j mice; format: in vivo; settings: one week post 1 mg per mouse i.p.; diet control 52
Experimental: The ability of synthetic casein derived peptides to reduce cholesterol levels in 7-week old female C57B1/6j mice was assessed after feeding an atherogenic diet. The mice were divided into groups of 8. One control group was fed a normal diet. A second control group was fed the modified Thomas Hartroft diet containing cholate (#TD 88051: Teklad, Madison, Wis.) [Gerber, D. W. et al. (2000), Journal of Lipid Research. 42, 2001]. The remaining experimental groups were all fed the modified Thomas Hartroft diet.
Cholesterol blood levels were determined according to Roche Cholesterol Assay based on Roeschlou & Allin enzymatic method (Roche, Inc., Germany).

[4] = test system: Non-Obese Diabetic (NOD) mice; assay: Prevention of glucosuria / Juvenile (Type I, IDDM) Diabetes in NOD mice; format: in vivo, mouse; settings: 100 μg once weekly for 5 weeks, evaluated after 25 weeks; for Healthy/Total* (healthy and well = sugar not detected in urine): female NOD mice
Experimental: Juvenile (Type I, IDDM) Diabetes in Non-Obese Diabetic (NOD) Mice:
Peptides Derived from Natural Casein:
NOD mice are a commonly used model for research of autoimmune disease and human Juvenile Diabetes. Six week old female NOD mice received either one or two injections per week of 100 μg of peptides derived from natural casein, for a total of 5 or 11 treatments. Control mice received no treatment. The severity of disease was determined according to glucosuria, which was measured using Combi test sticks [Gross, D. J. et al. (1994), Diabetology, 37:1195]. Results were expressed as the percent of glucosuria-free mice in each sample over a 365-day period.
Synthetic Peptides Derived from Casein:
In another experiment, 6 week old female NOD mice received one injection per week of 100 μg of Synthetic peptides derived from casein for a total of 5 treatments. Control mice received no treatment. Results were expressed as the number of healthy mice in the various treated groups.

[5] = test system: Non-Obese Diabetic (NOD) mice; assay: Intraperitoneal Glucose Tolerance Test (IPGTT) in NOD mice; format: in vivo, mouse; set-up: IPGT TEST 0 min. (pre-load), plasma glucose: unit not given here; settings: for IPGT test result (in words): healthy NOD mice after 25 weeks; for IPGT TEST 0 min. (pre-load), plasma glucose: individual healthy NOD mice, 25 weeks after peptides
Experimental: Intraperitoneal Glucose Tolerance Test (IPGTT):
The glucose tolerance test is the definitive method for investigating glucose metabolism and diabetic tendencies in mammals. Twenty five (25) weeks after receiving Synthetic peptides derived from casein, response to a glucose load was assessed with an intraperitoneal glucose tolerance test. Glucose injection consisted of 1 g/kg body weight. Glycemic values were determined from blood drawn prior to test (0 minutes) and 60 minutes after loading.

HIV-1IIIB [6] = assay: Inhibition of HIV-1 infection of Sup-T1 cells; format: cell-based
Experimental: as §1, §2
as §3, with “Sup-T1. […]” for “Sup-T1.”
HIV-1 P24 antigen capture assay: An HIV-1 P24 Antigen capture assay kit employed was designed to quantitate the HIV-1 P24 core antigen, which is proportionally related to the degree of viral production in cells. […] The HIV-1 P24 antigen capture assay was analyzed by Organon-Technica ELISA reader at 450 nm with a reference at 650 nm.
HIV-1 P24 antigen capture ELISA: HIV infection was measured with an indirect enzyme immunoassay which detects HIV-1 P24 core antigens in tissue culture media. […]

human bone marrow cells = assay: Colony assays of human bone marrow cells (CFU-GM, erythroid, megakaryocyte, CFU-GEMM); format: cell-based; settings: TPO-treated cells without peptides
Experimental: Proliferation of megakaryocyte- and erythroid forming cells from human bone marrow and cord blood cells: A sample of bone marrow from an apparently healthy human being was processed by density gradient separation using Histopaque-107 (Sigma Diagnostics) to obtain a purified population of mononuclear cells (MNC). […]
Colony assay medium containing 10^5 MNC per ml was plated in triplicate wells within a 24 well tissue culture plate (Greiner), 0.33 ml per well. […] Plates were scored after 14 days for colonies containing more than 50 cells. […]
Megakaryocytopoiesis was measured in normal bone marrow cells from healthy consenting human donors by either scoring of the number of megakaryocytes in samples of liquid culture (RPMI-1640 plus 10% human AB serum, glutamine and antibiotics) with or without 100 μg per ml peptides derived from natural casein, or in a methylcellulose assay for assessing colony formation. […] In the methylcellulose assay megakaryocytes were counted with an inverted microscope on days 12-14 after seeding.

Substance	megakaryocyte formation and development [1]	cell counts (HIV-1IIIB [2]; 10 μg per ml, 3 hours pretreatment)	HIV-1 infection level, P24 antigen (HIV-1IIIB [2]; 10 μg per ml) [ng P24 Ag per ml]	cell counts (HIV-1IIIB [2]; 25 μg per ml, 3 hours pretreatment)	HIV-1 infection level, P24 antigen (HIV-1IIIB [2]; 25 μg per ml) [ng P24 Ag per ml]	resistance of CEM cells to HIV-1 infection (in words) (HIV-1IIIB [2]; 3 hours pretreatment)	HDL [3] [mg/dL]	prevention of glucosuria (in words) [4]	Healthy/Total* (healthy and well = sugar not detected in urine) [4]	IPGT test result (in words) [5]	IPGT TEST 0 min. (pre-load), plasma glucose [5]	macrophages, % of total cell count ([1]; approximately 17% in unincubated controls) [%]	increase in lymphocyte cell number in infected cells (HIV-1IIIB [6]; 250 μg) [%]	increase in lymphocyte cell number in infected cells (HIV-1IIIB [6]; 500 μg per ml) [%]	megakaryocyte (MK) colonies (human bone marrow cells) [colonies per 2×10^5 cells]
RPKHP [3P]	significant increase	1.17 ×10^6	0.26	1.26 ×10^6	0.18	significant inhibition of HIV-1 infection	41								
RPKHPIKHQ [X]								highly effective	3/5	no evidence of abnormal glucose metabolism	94	~30	80	33	
RPKHPIKHQGL [2a]	significant increase						40	highly effective	4/5	The other two mice remained within normal glycemic range	95				
TPO: thrombopoietin, hematopoietic growth factor that stimulates megakaryocyte colony formation															16

Source: patent publication US7741274B2, “Casein derived peptides and uses thereof in therapy” (priority 2000, dated 2010)
